The values that follow are results of earlier work, collected in patent US8529939B2, “Mucoadhesive drug delivery devices and methods of making and using thereof” (Gel-Del Technologies, Inc., priority 2003, dated 2013).

Where [1] appears, read: contact time 30 s, previous study.

Each structure is given as a SMILES string.

For `OC[C@@H](O)[C@@H](O)[C@H](O)[C@H](O)CO` [Mannitol, mannitol], under setting [1], the tensile stress is listed as 0.017 N/cm^2 and the tensile work was 0.015 mJ/cm^2. In addition, the “bioadhesive properties (in words)” value (powders, control reference) was “no bioadhesive properties”.
